Test results reported in publication PMC6695731, “Application of a Substrate-Mediated Selection with c-Src Tyrosine Kinase to a DNA-Encoded Chemical Library” (Molecules, 2019).
“And” between values parts separate entries of the source, which are not always exact repeats. Equal values may be shown once. “Also recorded” adds a separate entry of the source.

Tests used:
c-Src [1] = biological target: T1, c-Src (Homo sapiens, UniProt P12931); test: on-DNA binding affinity to c-Src by fluorescence polarization in the presence of ATP; details: ligand linked to 20-mer oligo hybridized to FAM oligo; ATP 100 µM; read-out: binding constant (Kd)
Experimental: These studies used the HPLC-purified ligand linked to 20-mer oligos, which were prepared for the prior qPCR validations under crude conditions. This construct was hybridized to a fluorescein-containing complementary oligo, and binding constants were determined by changes observed in fluorescence polarization, as previously described.
(a) on-DNA binding affinity to c-Src measured by fluorescence polarization in the presence of ATP (100 µM). […] Peak identity was verified by LC/MS analysis (Figure S9).

c-Src [2] = biological target: T1, c-Src; test: HPLC and LC/MS analysis of phosphorylation of the compound by c-Src; type: biochemical
Experimental: (§1) To confirm this, compounds were tested with an NADH-based, coupled enzyme assay that also detects ADP generation. […] This additionally supported that the ADP-Glo activity observed was due to activation of ATP hydrolysis and not phosphotransfer to these compounds.
(a) on-DNA binding affinity to c-Src measured by fluorescence polarization in the presence of ATP (100 µM). […] Peak identity was verified by LC/MS analysis (Figure S9). […]
Kina se R e a c t ion w it h 1µM Src
Figure S7. HPLC Analysis of LYNtide Phosphorylation. The kinase reaction was performed by incubating 200 µM LYNtide with Src in 1x kinase buffer (as outlined in section 4.6 NADH coupled assay, […]
with 1mM ATP) for 30 min. […] Peak […]
identities were verified by LC/MS. The peak at 19 minutes is an impurity in the LYNtide alkyne preparation, which was also phosphorylated. […]
[M+H ]+ cal cd. […] O OH […]
Figure S9. LC/MS analysis of SrcDEL10 Phosphorylation. […]
µM ATP and 0.3 µM c-Src at 30 C for 16 hours. […]
and 10 µM c-Src at 30 C for 16 hours. […]

c-Src [3] = biological target: T1, c-Src; test: radiolabel (32P-ATP) inhibition assay of LYNtide phosphorylation by c-Src; type: biochemical; details: 32P-ATP 50 µM, biotinylated-LYNtide 50 µM
Experimental: The original six off-DNA hits were tested for inhibition of c-Src activity. For these tests, we used ^32P-ATP as a substrate and detected phosphorylation levels of a biotinylated-LYNtide substrate after adsorption to streptavidin coated membranes. This assay should not be affected by activation of ATP hydrolysis or phosphotransfer to the small molecules. […] There was no apparent correlation of these values to the Km or kcat values in the prior assays as substrates.
Each hit molecule was preincubated with 1.2 nM c-Src at 30 °C for 30 min. The kinase reaction was initiated with the addition of 50 μM LYNtide and 50 μM ATP with 0.15 μCi gamma ^32P ATP at 30 °C for 10 min. The kinase reaction samples (2 µL) were spotted on P81 filter paper consisting of 1.5 cm squares. After air dry, the P81 papers were washed 4 times with 0.5% phosphoric acid for 5 min each. The P81 papers were washed one time with acetone for 5 min. The papers were then allowed to air dry for about 20 min. The dried P81 papers were analyzed by liquid scintillation counter.
Figure 6 Inhibition of hit molecules in a radiolabel assay with ^32P-ATP (50 µM) and biotinylated-LYNtide (50 µM) as substrates.

Src = Src (Homo sapiens, UniProt P12931); test: HPLC-assessed inhibition of LYNtide phosphorylation; type: biochemical
Experimental: Kina se R e a c t ion w it h 1 0 nM Sr c
KR with LynT ide N-Alkyne (50uM)
Kina se R e a c t ion w it h 1 0 nM Sr c + Sr c D E L 1 0
300 ~ 25% phosphorylation
KR with LynT ide N-Alkyne (50uM) + Cmpd 10 (100uM)
Figure S11. […] The kinase reaction
30 min, if applicable) in 1x kinase buffer (as outlined in 4.6 NADH coupled assay, with 1mM ATP) for 30

[4] = tested on: STAT3 phosphorylation in NME cells; test: cell signaling immunoblot, EGF-stimulated STAT3 phosphorylation (Src-dependent); type: cell-based, murine; details: 100 µM prior to EGF (50 ng/mL, 30 min)
Excerpt: Epidermal growth factor (EGF) stimulation of NME cells leads to STAT3 phosphorylation via a Src-dependent process. […] The broad specificity Src family inhibitor, PP2, was used as a positive control. Importantly, phosphorylation of ERK1/2, which occurs via a Src independent pathway, was not reduced. Similarly, autophosphorylation of EGFR at Y1068 was not affected.
NME cells were constructed via stable overexpression of EGFR in normal murine mammary gland (NMuMG) cells as previously described. These cells were cultured in DMEM containing 10% FBS, 10 μg/mL insulin, penicillin, and streptomycin. For cell signaling assays, cells were plated for 24 h prior to removal of the FBS for an additional 24 h. During this serum starvation, PP2 (Sigma, 529576) or SrcDEL10-ester were added as indicated, and cells were subsequently stimulated with EGF (50 ng/mL) (Goldbio, 1150-04) for 30 min. […] Differential binding of these antibodies was detected using their appropriate secondary antibodies.
NME cells were serum deprived for 24 h in the presence of vehicle control (DMSO), Src family inhibitor PP2 (10 µM), or SrcDEL10-ester (100 µM) for the indicated amounts of time. […] Equal protein aliquots were analyzed by immunoblot with the indicated antibodies. […]

c-Src [5] = biological target: T1, c-Src; test: ADP-Glo assay of compounds as c-Src substrates (ADP production); type: biochemical
Experimental: Hit molecules were initially characterized as substrates for c-Src using the luciferase-based ADP-Glo assay (Promega). All six molecules appeared to be efficient substrates for Src kinase.
Kinase reaction was performed as follows 1x kinase buffer (25 mM Tris-HCl (pH 7.5), 2 mM dithiothreitol (DTT), 0.1 mM Na3VO4, 10 mM MgCl2), 1 mM ATP, different concentrations (1 μM to 100 μM) of substrates (either off DNA or on DNA hit molecules), and 12 nM rSrc by incubation for 2 h at 30 °C. After that, distinct 55mers were annealed to each kinase reaction, as previously described. The annealed reactions were incubated with anti Pho-Tyr loaded protein G magnetic bead at RT for 30 min. After washing by three times 20 μL 1xPBST with 1 mg/mL BSA, 1 mg/mL tRNAs), the captured samples were eluted by 20 μL of 1 mM phenylphosphate. The resulting supernatant was then used as a template in qPCR.
After the kinase reaction was performed as previous section, the reaction mixture (5 μL) was incubated with 5 µL of ADP-Glo™ reagent at RT for 40 min and then add 10 µL of kinase detection reagent at RT for 1 h. The luminescence was measure by plate reader.

c-Src [6] = biological target: T1, c-Src; test: NADH-based coupled enzyme assay detecting ADP generation; type: biochemical; details: 1 mM ATP, 100 µM compound, 12 nM Src, 30 °C, 3 h
Experimental: as §1
Kinase reaction was performed as follows 1x kinase buffer (25 mM Tris-HCl (pH 7.5), 2 mM dithiothreitol (DTT), 0.1 mM Na3VO4, 10 mM MgCl2), 1 mM ATP, 100 μM peptides and 12 nM Src at 30 °C for 3 h. The kinase reaction mixture was incubated with 30 unit/mL lactic dehydrogenase (LDH), 20 unit/mL pyruvate kinase (PK), 2 mM phosphoenolpyruvate (PEP), and 1 mM NADH. The absorbance of NADH was monitored at 340 nm.
Figure S8. NADH Coupled Assay of Hit Molecules with c-Src. Samples were composed of 1 mM ATP,
100 µM putative substrate molecules, and 12 nM c-Src kinase at 30 C for 3 hours. Full method description
is provided in Methods and Materials 4.6 NADH assay.

c-Src [7] = biological target: T1, c-Src; test: substrate-mediated selection of DNA conjugates (c-Src treatment, anti-phosphotyrosine pulldown), enrichment by qPCR; type: biochemical; details: purified DNA conjugates, with kinase treatment
Experimental: To mimic library selection conditions, a DNA-LYNtide construct was mixed with a control construct at a ratio of 1 to 500. This mixture was treated at 50 nM total DNA concentration with Src kinase and the selection was applied. We observed robust enrichment (2600-fold) and recovery (9%) of the LYNtide construct by qPCR (Figure S3).
We then questioned if SrcDEL10 was indeed selected from the library based on the ability to serve as a Src substrate and accept a phosphate.
For optimization of substrate-based selection, two unique 180-mer constructs were prepared by PCR, as previously described. Each contained two unique 20-mer sequences for specific amplification and detection in qPCR. One was prepared with an unmodified forward primer as a control. The other was prepared using a LYNtide 20-mer oligo conjugate as a primer.
Kinase reaction was performed as follows 1x kinase buffer (25 mM Tris-HCl (pH 7.5), 2 mM dithiothreitol (DTT), 0.1 mM Na3VO4, 10 mM MgCl2), 1 mM ATP, different concentrations (1 μM to 100 μM) of substrates (either off DNA or on DNA hit molecules), and 12 nM rSrc by incubation for 2 h at 30 °C. After that, distinct 55mers were annealed to each kinase reaction, as previously described. […]
Figure S3. […] In a model enrichment assay, enrichment for tyrosine kinase substrates was detected by qPCR of model 180-mer constructs. […]

c-Src [8] = details: LYNtide kinetic parameters for Src; cited from earlier work
[9] = Table S3, ADP-Glo assay of SrcDEL10 derivatives, enzyme Src

| Molecule | Kd (c-Src [1]) | SrcDEL10-phos. fraction by LC/MS (c-Src [2]; SrcDEL10 100 µM, 100 µM ATP, 10 µM c-Src, 30 C, 16 hours (Figure S9b)) | phosphorylated compound formed (c-Src [2]; enzyme 1 µM, SrcDEL10 200 µM, ATP 1 mM, HPLC, LC/MS) | IC50 (c-Src [3]) | inhibition at 100 µM (Src) | LYNtide phosphorylation in presence of compound (Src; 100 µM SrcDEL10, 50 µM LYNtide, 10 nM Src, 50% without compound) | STAT3 phosphorylation levels after EGF stimulation [4] | kcat (c-Src [5]; ADP-Glo assay) | Km (c-Src [5]; ADP-Glo assay, compound as substrate of c-Src) | Km (c-Src [5]; [9]) | Vmax (c-Src [5]; [9]) | kcat (c-Src [5]; [9]) | extent of phosphorylation (c-Src [2]; 1 µM c-Src, 200 µM LYNtide, 1 mM ATP, 30 min) | ADP generation relative to compound (c-Src [6]) | enrichment in qPCR selection assay (c-Src [7]) | Km (c-Src [8]) | kcat (c-Src [8]) |
| --- | --- | --- | --- | --- | --- | --- | --- | --- | --- | --- | --- | --- | --- | --- | --- | --- | --- |
| NC(=O)CN(CCc1ccc(O)cc1)C(=O)[C@H](CC(=O)O)NC(=O)c1ccc(CN(CC2CC2)C(=O)CCO)cc1 [SrcDEL10] | 7.5 µM | 54% | ~ 1% | 48 µM | ~50% | ~ 25% | No reduction |  |  |  |  |  |  |  |  |  |  |
| DEDIYGVLP [LYNtide, optimal peptide substrate for Lyn tyrosine kinase, a Src family kinase, reference compound] |  |  |  |  |  |  |  | 6.5 s⁻¹ | 5 µM and 5.2 µM | 5.23 µM | 1.17 µM/min | 6.47 s⁻¹ | full phosphorylation; also recorded: fully phosphorylated | approximately one equivalent | 10,000 fold | 18 µM | 2.0 s⁻¹ |
